The species entered for test [1] is Rattus norvegicus. As to the kind of experiment: Compound was evaluated for the drug discrimination assay and the ED50 (potency) was determined in rats. Format: functional.
The species entered for test [2] is Rattus norvegicus. Briefly: Compound was evaluated for the drug discrimination assay and the highest percent of LSD correct responses were determined in rats. Format: functional.

Take `CCC(C)c1cc(OC)c(CC(C)N)cc1OC.Cl` (stereo not drawn): the 50% effect level in test [1] (ED50) was put at a dose of 1.8 mg/kg. Further, in test [2], the LSD is on record as 70%.

`COc1cc(CC(C)N)c(OC)cc1CC(C)C.Cl` (stereo not drawn) returned an ED50 in test [1] of 0.536 mg/kg. Further, the LSD in test [2] came to 95%.

Consider `COc1cc(CC(C)N)c(OC)cc1C` (stereo not drawn) [DOM], for which, in test [1], it took a dose of 0.148 mg/kg to reach the 50% effect level (ED50). The same molecule came in with an LSD in test [2] of 99%.

In test [1], `CCN(CC)C(=O)[C@@H]1C=C2c3cccc4[nH]cc(c34)C[C@H]2N(C)C1` [LYSERGIDE] came in with an ED50 of 0.0077 mg/kg. This molecule also gave an LSD in test [2] of 100%.

The record behind these values is ChEMBL document CHEMBL1122672, “Substituent branching in phenethylamine-type hallucinogens: a comparison of 1-[2,5-dimethoxy-4-(2-butyl)phenyl]-2-aminopropane and 1-[2,5-dimethoxy-4-(2-methylpropyl)phenyl]-2-aminopropane” (1984).
